Earlier results in patent US6663901B1, “Pellets having a core coated with an antifungal and a polymer” (Janssen Pharmaceutical N.V., priority 1998, dated 2003).

In the case of `CCC(C)n1ncn(-c2ccc(N3CCN(c4ccc(OCC5COC(Cn6cncn6)(c6ccc(Cl)cc6Cl)O5)cc4)CC3)cc2)c1=O` (racemic) [itraconazole, (±)-cis-4-[4-[4-[4-[[2-(2,4-dichlorophenyl)-2-(1H-1,2,4-triazol-1-methyl)-1,3-dioxolan-4-yl]methoxy]phenyl]-1-piperazinyl]phenyl]-2,4-dihydro-2-(1-methylpropyl)-3H-1,2,4-triazol-3-one], the solubility in water is listed as “only very sparingly soluble”.
